Results as given in patent publication US7572816B2, “Therapeutic agents for the treatment of cancer, metabolic diseases and skin disorders” (Auspex Pharmaceuticals, Inc., priority 2004, dated 2009).

Key:
Assay type in all cases: cell-based
[1] = tested on: human melanoma cells (A375); settings: FIG. 1 and FIG. 2
Experimental: (§1) A375 cells (5,000 per well in 90% RPMI-1640 plus 10% Fetal Bovine Serum [FBS]) were pre-incubated in a black clear bottom 96-well plate in an atmosphere of 5% CO2 at 37° C. for 24 hours. Stock solutions of compounds in DMSO were diluted using a buffer and dilutions were added to each well. […] The final assay pH was 7.4. The cells were incubated in RPMI-1 640 with each compound for an additional 72 to 168 hours. Alamar Blue was added and the plate was incubated for an additional 12 hours. Fluorescence intensity was measured using a Gemini plate reader with excitation at 530 nm and emission at 590 nm. A decrease of 50 percent or more (≧50%) in fluorescence intensity relative to vehicle treated controls is an indication of significant anti-cancer activity.
TGI (Total Growth Inhibition): Test compound concentration where the increase in number or mass of cells after 72 to 168 hours is reduced to equal that at time t=0.

[2] = tested on: human hepatic carcinoma cells (HepG2); experiment: HepG2 Tumor Cell Proliferation Assay; settings: FIG. 3 and FIG. 4
Experimental: as §1, with “HepG2” for “A375”, “EMEM medium” for “RPMI-1640”, “[…]” for “96-well”, “EMEM medium” for “RPMI-1 640 with each compound”, “72” for “72 to 168”, “Blue (10% of culture volume)” for “Blue”

[3] = tested on: human colon cancer cells (LS174T); experiment: LS174T growth inhibition; settings: FIG. 5 and FIG. 6
[4] = tested on: human head and neck squamous cell carcinoma cells (SCC 103); experiment: SCC103 Tumor Cell Proliferation Assay; settings: SCC 103 cells; FIG. 7 and FIG. 8
Experimental: as §1, with “SCC 103” for “A375”, “(15,000” for “(5,000”, “EMEM medium” for “RPMI-1640”, “EMEM medium” for “RPMI-1 640 with each compound”, “72” for “72 to 168”, “Blue (10% of culture volume)” for “Blue”

Measured: growth inhibitory effect compared to Bexarotene

C=C(c1ccc(CN2C(=O)NC(C)(C)C2=O)cc1)c1cc2c(cc1C)C(C)(C)CCC2(C)C [Example 12, 5,5-Dimethyl-3-{4-[1-(3,5,5,8,8-pentamethyl-5,6,7,8-tetrahydro-naphthalen-2-yl)-vinyl]-benzyl}-imidazolidine-2,4-dione]
enhanced activity: all assays above

C=C(c1ccc(CN2C(=O)N(C)C(C)(C)C2=O)cc1)c1cc2c(cc1C)C(C)(C)CCC2(C)C [Example 14, 1,5,5-Trimethyl-3-{4-[1-(3,5,5,8,8-pentamethyl-5,6,7,8-tetrahydro-naphthalen-2-yl)-vinyl]-benzyl}-imidazolidine-2,4-dione]
enhanced activity: [1] | [3] | [4]

C=C(c1ccc(CN2C(=O)CN(C)C2=O)cc1)c1cc2c(cc1C)C(C)(C)CCC2(C)C [Example 11, 1-Methyl-3-{4-[1-(3,5,5,8,8-pentamethyl-5,6,7,8-tetrahydro-naphthalen-2-yl)-vinyl]-benzyl}-imidazolidine-2,4-dione]
enhanced activity: all assays above

C=C(c1ccc(CC(C(N)=O)C(N)=O)cc1)c1cc2c(cc1C)C(C)(C)CCC2(C)C [Example 8, 2-{4-[1-(3,5,5,8,8-Pentamethyl-5,6,7,8-tetrahydro-naphthalen-2-yl)-vinyl]-benzyl}-malonamide]
enhanced activity: all assays above

C=C(c1ccc(CN2C(=O)CSC2=O)cc1)c1cc2c(cc1C)C(C)(C)CCC2(C)C [Example 10, 3-{4-[1-(3,5,5,8,8-Pentamethyl-5,6,7,8-tetrahydro-naphthalen-2-yl)-vinyl]-benzyl}-thiazolidine-2,4-dione]
enhanced activity: [1] | [4]

C=C(c1ccc(CN2C(=O)CCNC2=O)cc1)c1cc2c(cc1C)C(C)(C)CCC2(C)C [Example 13, 3-{4-[1-(3,5,5,8,8-Pentamethyl-5,6,7,8-tetrahydro-naphthalen-2-yl)-vinyl]-benzyl}-dihydro-pyrimidine-2,4-dione]
enhanced activity: all assays above
